From US10028938B2, “Antiviral agents and uses thereof” (Griffith University, priority 2014, dated 2018) come the findings set out here.

Where two headings read alike, the source gives them in different places.

The target in data set [1] is T1, hPIV-3 HN (UniProt P08492).
T1 sequence (P08492 1-572): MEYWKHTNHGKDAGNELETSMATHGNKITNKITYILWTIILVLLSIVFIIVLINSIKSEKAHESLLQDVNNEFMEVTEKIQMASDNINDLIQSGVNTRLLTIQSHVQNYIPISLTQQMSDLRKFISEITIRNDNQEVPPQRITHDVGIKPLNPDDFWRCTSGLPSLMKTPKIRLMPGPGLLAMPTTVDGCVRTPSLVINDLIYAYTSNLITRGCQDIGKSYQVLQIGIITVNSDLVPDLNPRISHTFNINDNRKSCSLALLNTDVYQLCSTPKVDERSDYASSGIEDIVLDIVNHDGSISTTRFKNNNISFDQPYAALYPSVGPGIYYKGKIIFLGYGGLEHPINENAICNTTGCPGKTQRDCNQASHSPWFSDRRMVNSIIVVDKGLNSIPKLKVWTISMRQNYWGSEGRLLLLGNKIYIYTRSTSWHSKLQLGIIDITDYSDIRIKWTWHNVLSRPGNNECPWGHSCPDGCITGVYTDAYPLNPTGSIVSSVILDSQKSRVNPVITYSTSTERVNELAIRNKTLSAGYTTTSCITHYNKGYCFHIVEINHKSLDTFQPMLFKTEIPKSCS
Format: biochemical, hPIV-3 (strain C-243). On the set-up: rows headed: HI Mean IC50; hPIV-3 HN; 3 independent experiments; fold improvement in HI assay; other: versus 6; hPIV-3 HN HI IC50; other: text; other: text, unit given as M.

For data set [2], the target named is T1, hPIV-3 HN. Format: biochemical, hPIV-3 (strain C-243). More on the design: rows headed: NI Mean IC50; hPIV-3 HN; 3 independent experiments; Ki; Km value for MUN; other: whole hPIV-3 virus, [I]=0; fold improvement in NI assay; other: versus 6; hPIV-3 HN NI IC50; other: text; other: text, unit given as M.
The target of data set [3] is T2, hPIV-3 HN (Human parainfluenza 3 virus, UniProt P08492). Format: biochemical, hPIV-3 (strain C-243). The following applies: Table 5; read-out: hPIV-3 NI (IC50 values).
For the next data set, the target named is hPIV-1 NI (Human parainfluenza 1 virus, UniProt P16071). The experiment in a line: biochemical. How it is done:
IC50 values for a number of compounds of the first aspect were determined by standard assay methods previously described in Guillon, P et al, Nature Communications (2014).

For a further data set, the system named is LLC-MK2 cells. The experiment in a line: MTT assay for compound cytotoxicity. The following applies: 48 h, 30 μM, highest concentration tested. (Tetrazolium dyes change colour on reduction, which living cells bring about.)
Data set [4] has as its target T2, hPIV-3 HN. Format: binding. The following applies: 20 μM hPIV-3 HN, protein:ligand 1:100.
In data set [5] the test system is hPIV-3. The experiment in a line: Virus growth inhibition assay, titration of progeny virus (focus forming assay) in LLC-MK2 cells. Format: cell-based, hPIV-3 (strain C-243). The conditions noted are these: Human respirovirus 3, LLC-MK2, 48 h, read-out: Virus growth inhibition (reduction in virus titre).
Data set [6] relates to hPIV-3. The experiment in a line: In situ ELISA virus growth inhibition. Format: cell-based, hPIV-3 (strain C-243). For orientation: An ELISA detects its analyte on a solid surface through an enzyme-linked reagent.
In data set [7] the target is T1, hPIV-3 HN. Format: biochemical, hPIV-3 (strain C-243). More on the design: rows headed: NI hPIV-3 IC50. The conditions noted are these: Table 4; read-out: NI hPIV-3 IC50.
The target in data set [8] is T1, hPIV-3 HN. Format: biochemical, hPIV-3 (strain C-243). More on the design: rows headed: NI Mean IC50; hPIV-3 HN; 3 independent experiments; Ki; Km value for MUN; other: whole hPIV-3 virus, [I]=0; fold improvement in NI assay; other: versus 6; hPIV-3 HN NI IC50; other: text; other: text, unit given as M. The following applies: read-out: Km value for MUN.
Setting [9] is: Table 2 prints no unit, μM, hPIV-3 HN, 3 independent experiments, read-out: NI Mean IC50.
Where [10] appears, read: Table 2 prints no unit, μM, hPIV-3 HN, 3 independent experiments, read-out: HI Mean IC50.
[11] abbreviates: Human respirovirus 3, Table 4, A549 cells, hPIV-3, read-out: Cell-based ELISA IC50.

Chain of hPIV-1 NI (P16071 whole entry): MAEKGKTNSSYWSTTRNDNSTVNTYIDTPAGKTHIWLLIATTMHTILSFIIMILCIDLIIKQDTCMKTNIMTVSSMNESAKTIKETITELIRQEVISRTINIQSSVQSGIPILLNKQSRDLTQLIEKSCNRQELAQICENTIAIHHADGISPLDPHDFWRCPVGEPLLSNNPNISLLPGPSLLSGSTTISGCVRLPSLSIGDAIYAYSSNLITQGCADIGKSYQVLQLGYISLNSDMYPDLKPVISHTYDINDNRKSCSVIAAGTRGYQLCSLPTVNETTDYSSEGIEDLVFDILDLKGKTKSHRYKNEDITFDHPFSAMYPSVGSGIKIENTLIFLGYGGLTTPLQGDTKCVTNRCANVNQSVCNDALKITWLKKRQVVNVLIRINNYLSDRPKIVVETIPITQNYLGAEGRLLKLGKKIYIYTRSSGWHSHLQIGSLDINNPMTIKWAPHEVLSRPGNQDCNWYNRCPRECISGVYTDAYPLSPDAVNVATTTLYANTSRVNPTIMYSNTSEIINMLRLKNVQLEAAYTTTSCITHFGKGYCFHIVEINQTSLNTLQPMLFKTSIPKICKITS

The term IC50 denotes the concentration that gives 50% inhibition. As for `CC(=O)NC1C(O)C=C(C(=O)O)OC1C(O)C(O)CO` (centres unmarked) [Compound 2, Neu5Ac2en, reference compound], at hPIV-3 HN [1] (read-out: hPIV-3 HN HI IC50), the half-inhibitory concentration (IC50) came to 1440 µM.
As to `CC(=O)NC1C(N=[N+]=[N-])C=C(C(=O)O)OC1C(O)C(O)CO` (centres unmarked) [Compound 3, 4-azido-4-deoxy-Neu5Ac2en, reference compound], the IC50 on hPIV-3 HN [1] (read-out: hPIV-3 HN HI IC50) stood at 210 µM; on hPIV-3 HN [2] (setting [9]) it was 138 µM.
On to `CC(C)C(=O)NC1C(O)C=C(C(=O)O)OC1C(O)C(O)CO` (centres unmarked) [Compound 5, reference compound], for which the IC50 at hPIV-3 HN [1] (setting [10]) turned out to be 358 µM; at hPIV-3 HN [2] (setting [9]), 188 µM.
In the case of `COCc1cn([C@H]2C=C(C(=O)O)O[C@@H]([C@H](O)[C@H](O)CO)[C@@H]2NC(C)=O)nn1` [Compound 7, Sodium 5-acetamido-2,6-anhydro-3,4,5-trideoxy-4-(4-methoxymethyl-[1,2,3,]triazol-1-yl)-D-glycero-D-galacto-non-2-enonate], the IC50 came out at 148 µM at hPIV-3 HN [3]; 19.8 µM on hPIV-1 NI; 312 µM at hPIV-3 HN [1] (setting [10]); 313 µM at hPIV-3 HN [1] (read-out: hPIV-3 HN HI IC50); 154 µM on hPIV-3 HN [2] (setting [9]); 154 µM on hPIV-3 HN [2] (read-out: hPIV-3 HN NI IC50).
In the case of `CC(=O)N[C@H]1[C@H]([C@H](O)[C@H](O)CO)OC(C(=O)[O-])=C[C@@H]1n1cc(-c2ccccc2)nn1.[Na+]` [Compound 8, Sodium 5-acetamido-2,6-anhydro-3,4,5-trideoxy-4-(4-phenyl-[1,2,3,]triazol-1-yl)-D-glycero-D-galacto-non-2-enonate], the IC50 at hPIV-3 HN [3] was determined as 5.85 µM. Moreover, the IC50 against hPIV-1 NI was 168 µM. In addition, the IC50 at hPIV-3 HN [1] (setting [10]) was 4.58 µM. Further, the IC50 on hPIV-3 HN [1] (read-out: hPIV-3 HN HI IC50) was 4.6 µM. Moreover, the half-inhibitory concentration (IC50) at hPIV-3 HN [2] (setting [9]) worked out at 6.51 µM. Besides, at hPIV-3 HN [2] (read-out: hPIV-3 HN NI IC50), the IC50 was 6.5 µM. For the same molecule, the “Cytotoxic effect (MTT)” value with LLC-MK2 cells is listed as “No cytotoxic effect”. In addition, on hPIV-3 HN [4] (reference signal), the “Relative STD NMR effect, ArH4′” value is 100%. Further, at hPIV-3 HN [4] (relative to ArH4′), the “Relative STD NMR effect, ArH2′ ArH6′” value came to 92%; the “Relative STD NMR effect, ArH3′ ArH5′” value is 100%; the “Relative STD NMR effect, H3” value worked out at 85%; the “Relative STD NMR effect, H4” value came out at 59%. At hPIV-3 HN [4] (relative to ArH4′), the “Relative STD NMR effect, H5” value was 50%; the “Relative STD NMR effect, H6” value stood at 49%; the “Relative STD NMR effect, H7” value was determined as 30%; the “Relative STD NMR effect, H8” value is 30%. On hPIV-3 HN [4] (relative to ArH4′), the “Relative STD NMR effect, H9” value stood at 12%; the “Relative STD NMR effect, H9′” value was found to be 18%; the “Relative STD NMR effect, NHAc” value is given as 41%; the “Relative STD NMR effect, Triazole CH” value is given as 63%.
Take `COCc1cn([C@H]2C=C(C(=O)O)O[C@@H]([C@H](O)[C@H](O)CO)[C@@H]2NC(=O)C(C)C)nn1` [Compound 9, Sodium 2,6-anhydro-3,4,5-trideoxy-5-isobutyramido-4-(4-methoxymethyl-[1,2,3,]triazol-1-yl)-D-glycero-D-galacto-non-2-enonate]: the IC50 on hPIV-3 HN [3] was found to be 13.1 µM; at hPIV-1 NI it was 0.489 µM; at hPIV-3 HN [1] (setting [10]), 13.8 µM; on hPIV-3 HN [1] (read-out: hPIV-3 HN HI IC50), 13.8 µM; on hPIV-3 HN [2] (setting [9]), 14.2 µM; at hPIV-3 HN [2] (read-out: hPIV-3 HN NI IC50), 14.2 µM.
A word on the inhibition: it is the percentage by which the read-out fell short of the control. With `CC(C)C(=O)N[C@H]1[C@H]([C@H](O)[C@H](O)CO)OC(C(=O)[O-])=C[C@@H]1n1cc(-c2ccccc2)nn1.[Na+]` [Compound 10, Sodium 2,6-anhydro-3,4,5-trideoxy-5-isobutyramido-4-(4-phenyl-[1,2,3,]triazol-1-yl)-D-glycero-D-galacto-non-2-enonate], the inhibition at 2 µM in the data set on hPIV-3 [5] came to 94%. Besides, the IC50 with hPIV-3 [6] (Human respirovirus 3, A549, read-out: Virus growth IC50 (in situ ELISA)) is 10.3 ± 0.3 µM; with hPIV-3 [6] (Human respirovirus 3, LLC-MK2, read-out: Virus growth IC50 (in situ ELISA)), 2.1 ± 0.6 µM; in the data set on hPIV-3 [6] (Human respirovirus 3, NHBE, read-out: Virus growth IC50 (in situ ELISA)), 13.9 ± 0.7 µM; in the data set on hPIV-3 [6] (Human respirovirus 3, read-out: Virus growth inhibition IC50, range over all three cell lines), 2.1 to 13.9 µM. Besides, the “times more potent than 6, cell-based assay” value with hPIV-3 [6] (LLC-MK2 cells, versus 6) is given as approximately 26 times. For the same molecule, the “Cytotoxic effect (MTT)” value with LLC-MK2 cells is “No cytotoxic effect”.
As to `CC(C)C(=O)NC1C(N=[N+]=[N-])C(F)C(F)(C(=O)O)OC1[C@H](O)[C@H](O)CO` (some centres unmarked) [I-70], the figures for the IC50 in the data set with hPIV-3 [6] (setting [11]) and on hPIV-3 HN [7] were 14 µM and 6 µM, respectively.
As for `CC(C)C(=O)NC1C([C@H](O)[C@H](O)CO)OC(F)(C(=O)O)C(F)C1n1cc(-c2ccccc2)nn1` (some centres unmarked) [I-79], the IC50 turned out to be 45 µM with hPIV-3 [6] (setting [11]) and 63 µM at hPIV-3 HN [7].
The like results for `COCc1cn(C2C(NC(=O)C(C)C)C(C(O)C(O)CO)OC(F)(C(=O)O)C2F)nn1` (centres unmarked) [I-104] were, in that order, 25 µM and 4 µM.
In the case of `COCc1cnnn1[C@H]1C=C(C(=O)O)O[C@@H]([C@H](O)C(O)CO)[C@@H]1NC(C)=O` (stereo partly drawn) [IE1172-87, Sodium 5-acetamido-2,6-anhydro-3,4,5-trideoxy-4-(5-methoxymethyl-[1,2,3,]triazol-1-yl)-D-glycero-D-galacto-non-2-enonate], the concentration for half-maximal inhibition (IC50) came to 77.4 µM on hPIV-3 HN [3] and 92.8 µM on hPIV-1 NI.
The matching figures for `CC(=O)N[C@H]1[C@H]([C@H](O)C(O)CO)OC(C(=O)O)=C[C@@H]1n1nnc(-c2ccccc2)c1-c1ccccc1` (stereo partly drawn) [IE1172-102, Sodium 5-acetamido-2,6-anhydro-3,4,5-trideoxy-4-(4,5-diphenyl-[1,2,3,]triazol-1-yl)-D-glycero-D-galacto-non-2-enonate]: more than 1000 µM and 793 µM.
The like results for `COCc1cn(C2C(F)[C@](F)(C(=O)O)OC([C@H](O)[C@H](O)CO)[C@@H]2NC(=O)C(C)C)nn1` (stereo partly drawn) [IE1257-24, 3,4,5-Trideoxy-3-fluoro-5-isobutyramido-4-(4-methoxymethyl-[1,2,3,]triazol-1-yl)-D-erythro-β-L-gluco-non-2-ulopyranosonic fluoride] were, in that order, 8.49 µM and 0.36 µM.
The like results for `CC(=O)N[C@H]1[C@H]([C@H](O)C(O)CO)OC(C(=O)O)=C[C@@H]1n1cc(-c2ccccc2Br)nn1` (stereo partly drawn) [IE1257-84, Sodium 5-acetamido-2,6-anhydro-4-(4-(2-bromophenyl)-[1,2,3,]triazol-1-yl)-3,4,5-trideoxy-D-glycero-D-galacto-non-2-enonate] were, in that order, 2.19 µM and 24.9 µM.
A word on the Km: it is the substrate concentration at which the rate is half of its maximum. In the case of `CC(=O)N[C@H]1[C@H]([C@H](O)[C@H](O)CO)O[C@@](Oc2ccc3c(C)cc(=O)oc3c2)(C(=O)O)C[C@@H]1O` [MUN, 2′-(4-methylumbelliferyl) […]-D-N-acetylneuraminide], the Km at hPIV-3 HN [8] was 5.1 mM.
